# Measurements taken from ChEMBL document CHEMBL1201862, “PubChem BioAssay data set” (2004).
# The source made the active and inactive calls.
# Legend:
# [1] = inhibitors of intracellular T. cruzi replication, confirmation, NIH3T3 host cells, beta-gal luminescence (AID 2044); type: functional, cell-based;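 note: intracellular parasites grown in NIH/3T3 mouse fibroblasts as host cells; luminescent beta-galactosidase reporter signal from transgenic T. cruzi replicating inside host cells; inhibitors lower the luminescence signal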
# [2] = cytotoxicity toward NIH3T3 fibroblasts, dose response, counter-screen, cell-based, ATP luminescence, mouse fibroblasts (AID 2010); type: functional;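 note: cells exposed to compound for about 90 hours before reading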
# [3] = biological target: T1, DNA repair protein RAD52 homolog (Homo sapiens, UniProt P43351); type: functional, biochemical
# T1 sequence (P43351 whole entry): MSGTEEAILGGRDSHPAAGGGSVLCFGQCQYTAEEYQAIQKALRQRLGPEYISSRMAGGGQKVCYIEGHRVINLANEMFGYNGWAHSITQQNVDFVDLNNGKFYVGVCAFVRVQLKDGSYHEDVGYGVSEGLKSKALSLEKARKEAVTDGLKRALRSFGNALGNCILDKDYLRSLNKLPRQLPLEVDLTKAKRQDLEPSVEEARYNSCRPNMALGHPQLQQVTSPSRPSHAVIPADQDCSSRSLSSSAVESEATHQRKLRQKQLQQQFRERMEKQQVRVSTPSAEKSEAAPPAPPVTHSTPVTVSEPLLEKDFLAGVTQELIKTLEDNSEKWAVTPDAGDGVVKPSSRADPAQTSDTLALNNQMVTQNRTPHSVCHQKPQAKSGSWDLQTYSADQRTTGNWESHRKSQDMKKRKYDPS
# HEK293 [4] = test: NOD1 signaling inhibitors, primary screen, cell-based, luminescence, uHTS (AID 1578); type: functional; conditions: Homo sapiens
# HEK293 [5] = test: cells; type: functional, cell-based; conditions: Homo sapiens
# HEK293 [6] = test: cells; type: functional, cell-based; conditions: Homo sapiens; remark: listed apart in the source
# HEK293 [7] = test: NOD2 signaling inhibitors in MDP-stimulated cells, cell-based, uHTS, luminescence (AID 2001); type: functional; conditions: Homo sapiens
# Nonstructural protein 1 = Nonstructural protein 1 (Influenza A virus, UniProt Q194T2); type: functional, Influenza A virus (A/California/07/2009(H1N1))
# Sequence of Nonstructural protein 1 (Q194T2 whole entry): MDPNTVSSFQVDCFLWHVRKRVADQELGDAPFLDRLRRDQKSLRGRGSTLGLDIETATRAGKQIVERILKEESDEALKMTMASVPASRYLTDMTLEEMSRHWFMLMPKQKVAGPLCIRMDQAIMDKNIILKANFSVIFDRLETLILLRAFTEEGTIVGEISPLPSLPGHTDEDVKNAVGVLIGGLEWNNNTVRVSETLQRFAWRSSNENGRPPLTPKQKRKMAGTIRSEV
# [8] = biological target: T2, Short transient receptor potential channel 4 (Mus musculus, UniProt Q9QUQ5); test: mouse TRPC4 channel inhibitors, dose response, cell-based, HEK293 TRPC4/mu-opioid, Fluo-4 calcium (AID 434942); type: functional;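 note: potency of inhibitors blocking the TRPC4 calcium response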
# T2 sequence (Q9QUQ5 whole entry): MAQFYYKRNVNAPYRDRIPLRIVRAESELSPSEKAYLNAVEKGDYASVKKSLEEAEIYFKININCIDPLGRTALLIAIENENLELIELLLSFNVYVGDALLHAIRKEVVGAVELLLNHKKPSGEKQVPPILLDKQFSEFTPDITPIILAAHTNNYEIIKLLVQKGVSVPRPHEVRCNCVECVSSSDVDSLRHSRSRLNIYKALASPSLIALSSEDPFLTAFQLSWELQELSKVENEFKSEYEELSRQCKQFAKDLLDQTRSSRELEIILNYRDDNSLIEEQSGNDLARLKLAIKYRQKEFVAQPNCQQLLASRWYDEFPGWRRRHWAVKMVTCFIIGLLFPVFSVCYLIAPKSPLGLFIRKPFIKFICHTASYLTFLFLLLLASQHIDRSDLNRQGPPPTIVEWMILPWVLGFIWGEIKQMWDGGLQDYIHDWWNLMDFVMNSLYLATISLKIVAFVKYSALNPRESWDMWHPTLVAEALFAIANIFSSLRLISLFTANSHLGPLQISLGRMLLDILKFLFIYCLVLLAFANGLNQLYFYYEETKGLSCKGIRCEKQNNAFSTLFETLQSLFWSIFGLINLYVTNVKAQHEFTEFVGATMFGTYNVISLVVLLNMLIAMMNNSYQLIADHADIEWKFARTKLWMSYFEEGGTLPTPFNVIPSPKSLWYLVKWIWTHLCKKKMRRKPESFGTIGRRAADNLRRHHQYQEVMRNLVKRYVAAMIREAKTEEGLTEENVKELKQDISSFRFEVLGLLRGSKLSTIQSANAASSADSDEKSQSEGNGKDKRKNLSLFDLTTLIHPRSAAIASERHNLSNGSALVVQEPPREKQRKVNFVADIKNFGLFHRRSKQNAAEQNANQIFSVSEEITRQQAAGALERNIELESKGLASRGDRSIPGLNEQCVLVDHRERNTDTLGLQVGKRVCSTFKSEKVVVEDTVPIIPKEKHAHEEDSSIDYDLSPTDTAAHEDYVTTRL
# [9] = inhibitors of HIV Env-driven cell fusion, dose response, cherry-pick (AID 652057); type: functional, cell-based
# [10] = CEM21 lymphoblast cell cytotoxicity, dose response, cytotoxicity control for viral fusion inhibitor project, CellTiter-Glo luminescence, cherry-picked (AID 652042); type: functional, cell-based;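 note: potency for signal decrease meaning cytotoxicity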
# [11] = off-target signal loss in HeLa-CEM21 co-culture – HeLa F-luc CTL cells, cherry-picked, counter-screen for HIV-1 Env fusion inhibitor project, dose response (AID 652040); type: functional, cell-based;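 note: potency for signal decrease marking cytotoxic or nonspecific inhibition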
# [12] = Luminescence Cell-Based Dose Retest to Confirm Inhibitors of Cancer Stem Cells. [Related pubchem assays (depositor defined):AID2717, AID2721]; type: functional; conditions: Homo sapiens
# HEK293 [13] = test: inhibitors of LMP1-driven NF-kB reporter, dose response, cell-based, HEK293, luciferase, cherry-pick (AID 588343); type: functional; conditions: Homo sapiens
# [14] = A549 cell cytotoxicity, dose response, cytotoxicity control, plate reader, cherry-pick, antagonist series (AID 743412); type: functional, cell-based
# [15] = HepG2 cell cytotoxicity, dose response, cytotoxicity control, plate reader, cherry-pick, antagonist series (AID 743416); type: functional, cell-based
# [16] = LGR2 antagonists, dose response, cell-based, HEK293, CRE-luciferase reporter, cherry pick, set 2 (AID 743343); type: functional;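 note: transfected cells were stimulated with diluted bursicon conditioned medium after compound addition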
# [17] = MC4R antagonists, dose response, counter-screen for LGR2 antagonist project, cell-based, plate reader, cherry pick (AID 743444); type: functional;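 note: transfected HEK 293 cells stimulated with alpha-MSH peptide; potency of inhibitors of the alpha-MSH evoked signal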
# [18] = HEK293 cell cytotoxicity, dose response, cytotoxicity control, plate reader, cherry-picked samples (AID 743446); type: functional, cell-based
# [19] = NIH-3T3 fibroblast cytotoxicity, dose response, cytotoxicity control, cell-based, fluorescence, Alamar Blue, secondary assay (AID 2327); type: functional;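 note: NIH-3T3 mouse fibroblasts cultured with fluconazole at 8 µg/mL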
# [20] = C. albicans growth with fluconazole, confirmation, fluorescence, retest (AID 2467); type: functional, cell-based
# INS1 = test: beta cell apoptosis inhibitors, cytokine rescue, dose response, luminescence, retest (AID 449756); type: functional, cell-based; conditions: Rattus norvegicus;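 note: cell death triggered by IL-1 beta plus TNF-alpha plus IFN-gamma mixture; protective hits raise ATP signal compared with cytokine alone wells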
# [21] = ZM109 Env clade C HIV-1 fusion inhibitors, dose response, HeLa effector, CEM target cells, luciferase, cherry-pick (AID 652058); type: functional, cell-based
# [22] = inhibitors of clade B AD8 Env fusion, dose response, cell-based, cherry-pick (AID 652062); type: functional;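 note: luciferase signal from cell-cell fusion driven by HIV-1 clade B AD8 Env; potency is for inhibitors of fusion seen as a drop in luminescence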
# [23] = inhibitors of firefly luciferase expression or activity, dose response, H4 neuroglioma cells, luminescence (AID 1990); type: functional, cell-based
# [24] = Luminescence Cell-Based Dose Response HTS to Identify Inhibitors of 5'UTR Stem-Loop Driven Prion Protein mRNA Translation in H4 Neuroglioblastoma Cells. [Related pubchem assays: 1827 (Project Summary), 1813 (Primary HTS)]; type: functional
# [25] = inhibitors of SNCA 5'UTR-driven reporter translation, confirmation, H4 neuroglioma cells, luminescence (AID 1988); type: functional, cell-based
# [26] = cytotoxicity in HEK-293T cells, dose response, cytotoxicity control for BCR NF-kB inhibitor project, luminescence, B-cell screen hits (AID 489021); type: functional, cell-based;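 note: HEK-293T cells carrying an NF-kB luciferase reporter; cells exposed to compound for about 14 hours before viability readout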
# Paired box protein Pax-8 = Paired box protein Pax-8 (Homo sapiens, UniProt Q06710); test: inhibitors of PAX8-driven TPO luciferase reporter, dose response, RMG-I cells, cherry-pick (AID 687027); type: functional, cell-based;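 note: luciferase reporter driven by Pax8 target thyroperoxidase promoter measured by SteadyGlo luminescence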
# Sequence of Paired box protein Pax-8 (Q06710 whole entry): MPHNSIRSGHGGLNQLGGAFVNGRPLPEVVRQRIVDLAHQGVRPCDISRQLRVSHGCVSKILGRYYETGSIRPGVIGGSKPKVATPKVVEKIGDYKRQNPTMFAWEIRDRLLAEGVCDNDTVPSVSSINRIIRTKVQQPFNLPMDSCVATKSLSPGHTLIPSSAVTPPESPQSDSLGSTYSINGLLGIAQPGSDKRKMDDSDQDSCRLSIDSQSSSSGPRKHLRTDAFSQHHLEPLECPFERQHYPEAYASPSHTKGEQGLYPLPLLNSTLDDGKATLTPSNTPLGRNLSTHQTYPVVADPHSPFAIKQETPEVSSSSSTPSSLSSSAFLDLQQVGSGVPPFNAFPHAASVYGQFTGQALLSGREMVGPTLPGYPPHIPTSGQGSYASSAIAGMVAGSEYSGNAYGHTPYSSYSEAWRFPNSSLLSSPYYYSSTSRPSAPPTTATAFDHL
# [27] = biological target: Eukaryotic translation initiation factor 4E (Mus musculus, UniProt P63073); test: eIF4E–eIF4G protein interaction inhibitors, dose response, biochemical, TR-FRET (AID 855); type: functional;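 note: potency for disrupting eIF4E binding to eIF4GI seen as loss of FRET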
# Sequence of Eukaryotic translation initiation factor 4E (P63073 whole entry): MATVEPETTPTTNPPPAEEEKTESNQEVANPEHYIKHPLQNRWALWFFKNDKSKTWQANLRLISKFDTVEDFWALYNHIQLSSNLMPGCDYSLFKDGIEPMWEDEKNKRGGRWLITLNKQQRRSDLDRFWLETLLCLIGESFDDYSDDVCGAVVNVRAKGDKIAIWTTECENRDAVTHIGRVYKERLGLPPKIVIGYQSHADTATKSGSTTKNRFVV
smiles,measurement,setting,value
CCOC(=O)c1c(C)n(CC(O)CN(C)C)c2cc(Br)c(OC)cc12 (stereo not given),EC50,[1],0.685 µM (active)
same,EC50,[2],> 60 µM (not active)
same,AC50,[3],10.1 µM (active)
Oc1cc(-c2ccccc2)nc2cc(-c3ccc(Br)cc3)nn12,EC50,HEK293 [4],10.8 µM (active)
same,IC50,HEK293 [5],16.9 µM (active)
same,IC50,HEK293 [6],> 20 µM (inactive)
same,IC50,HEK293 [7],5.12 µM (inactive)
O=C(N/N=C/c1ccccc1O)c1ccncc1 [SALINAZID],IC50,Nonstructural protein 1,7.54 µM (active)
O=C(C[N+]1(CC#Cc2ccccc2)CCCCC1)c1ccc(Cl)cc1,EC50,[8],7.5 µM (active)
COC(=O)Cn1cnc2c(Cl)nc(F)nc21,AC50,[9],20.5 µM (active)
same,AC50,[10],47.3 µM (active)
same,AC50,[11],25.6 µM (active)
COc1cccc(/C=C/c2ccc3ccccc3n2)c1OC(C)=O,AC50,[12],6.67 µM (active)
same,AC50,HEK293 [13],1.87 µM (active)
same,AC50,[14],25.3 µM (active)
same,AC50,[15],33.3 µM (active)
same,AC50,[16],2.77 µM (active)
same,AC50,[17],2.59 µM (active)
same,AC50,[18],30.1 µM (active)
N#CC1=C(N)Oc2c(ccc3cccnc23)C1c1cccnc1 (stereo not given),EC50,[19],22.1 µM (active)
same,EC50,[20],1.18 µM (active)
same,IC50,Nonstructural protein 1,56.6 µM (active)
same,AC50,INS1,3.17 µM (active)
CCOc1ccccc1CN1CCN(Cc2cccc3nonc23)CC1CCO (stereo not given),EC50,[8],5.31 µM (active)
CCOc1cc2c3c(c1)C(C)CC(C)(C)N3C(=O)C2=O (stereo not given),AC50,[9],8.22 µM (active)
same,AC50,[10],50.9 µM (active)
same,AC50,[21],6.91 µM (active)
same,AC50,[11],12.2 µM (active)
same,AC50,[22],12.7 µM (active)
O=C(NCCC1CCCCN1S(=O)(=O)c1ccc(Cl)cc1)C(=O)NCc1ccncc1 (stereo not given),EC50,[23],15.5 µM (active)
same,EC50,[24],20.8 µM (active)
same,EC50,[25],9.38 µM (active)
same,IC50,[26],> 80 µM (inactive)
same,AC50,Paired box protein Pax-8,3.27 µM (active)
CC1(Oc2ccc3ccccc3c2)CCN(Cc2cccn2-c2nccs2)C1 (stereo not given),AC50,[9],10.9 µM (active)
same,AC50,[10],51.9 µM (active)
same,AC50,[21],12.3 µM (active)
same,AC50,[11],14.7 µM (active)
same,AC50,[22],29.4 µM (active)
Cc1ccc(C)c(NC(S)=NCCN(C2CCCCC2)C2CCCC2)c1,IC50,[27],50 µM (inactive)
